Measured values as given in US7220875B2, “Amino acid derived prodrugs of propofol, compositions and uses thereof” (priority 2003, dated 2007).

How the values were obtained:
[1] = Enzymatic cleavage of prodrugs in vitro, rat plasma; format: in vitro ADME; details: substrate 2.0 μM, 37° C.
Procedure: (§1) The stability of propofol prodrugs were evaluated in one or more in vitro systems using a variety of tissue preparations following methods known in the art. Tissues were obtained from commercial sources (e.g., Pel-Freez Biologicals, Rogers, Ark., or GenTest Corporation, Woburn, Mass.). Experimental conditions used for the in vitro studies are described in Table 1 below. Each preparation was incubated with test compound at 37° C. for one hour. Aliquots (50 μL) were removed at 0, 30, and 60 min and quenched with 0.1% trifluoroacetic acid in acetonitrile. Samples were then centrifuged and analyzed by LC/MS/MS (see Examples 59 and 60 below for method details). Stability of drug conjugates towards specific enzymes (e.g., peptidases, etc.) were also assessed in vitro by incubation with the purified enzyme: […]

[2] = Enzymatic cleavage of prodrugs in vitro, human plasma; format: in vitro ADME; details: substrate 2.0 μM, 37° C.
Procedure: as §1

[3] = Enzymatic cleavage of prodrugs in vitro, rat liver S9; format: in vitro ADME; details: Rat Liver S9 (0.5 mg/mL), substrate 2.0 μM, NADPH, 37° C.
Procedure: as §1

[4] = Enzymatic cleavage of prodrugs in vitro, human liver S9; format: in vitro ADME; details: Human Liver S9 (0.5 mg/mL), substrate 2.0 μM, NADPH, 37° C.
Procedure: as §1

[5] = Caco-2 homogenate S9 stability; format: in vitro ADME; details: Caco-2 S9 (0.5 mg protein per mL), prodrug 5 μM, 37° C.
Procedure: (§2) The stability of propofol prodrugs were evaluated in one or more in vitro systems using a variety of tissue preparations following methods known in the art. Tissues were obtained from commercial sources (e.g., Pel-Freez Biologicals, Rogers, Ark., or GenTest Corporation, Woburn, Mass.). Experimental conditions used for the in vitro studies are described in Table 1 below. Each preparation was incubated with test compound at 37° C. for one hour. Aliquots (50 μL) were removed at 0, 30, and 60 min and quenched with 0.1% trifluoroacetic acid in acetonitrile. Samples were then centrifuged and analyzed by LC/MS/MS (see Examples 59 and 60 below for method details). Stability of drug conjugates towards specific enzymes (e.g., peptidases, etc.) were also assessed in vitro by incubation with the purified enzyme:
Caco-2 Homogenate S9 Stability: Caco-2 cells were grown for 21 days prior to harvesting. Culture medium was removed and cell monolayers were rinsed and scraped off into ice-cold 10 mM sodium phosphate/0.15 M potassium chloride, pH 7.4. Cells were lysed by sonication at 4° C. using a probe sonicator. Lysed cells were then transferred into 1.5 mL centrifuge vials and centrifuged at 9000 g for 20 min at 4° C. The resulting supernatant (Caco-2 cell homogenate S9 fraction) was aliquoted into 0.5 mL vials and stored at −80° C. until used.
For stability studies, prodrug (5 μM) was incubated in Caco-2 homogenate S9 fraction (0.5 mg protein per mL) for 60 min at 37° C. Concentrations of intact prodrug and released propofol were determined at zero time and 60 minutes using LC/MS/MS.

pancreatin = experiment: Pancreatin stability; format: in vitro ADME, porcine; details: 1% (w/v) pancreatin, pH 7.5, conjugate 5 μM, 37° C.
Procedure: as §2
Pancreatin Stability: Stability studies were conducted by incubating conjugate (5 μM) with 1% (w/v) pancreatin (Sigma, P-1625, from porcine pancreas) in 0.025 M Tris buffer containing 0.5 M NaCl (pH 7.5) at 37° C. for 60 min. The reaction was stopped by addition of 2 volumes of methanol. After centrifugation at 14,000 rpm for 10 min, the supernatant was removed and analyzed by LC/MS/MS.

in vivo = details: male, Sprague-Dawley, rat, plasma, oral, 25 mg per kg body weight
Procedure: Propofol was administered as an intravenous bolus injection or by oral gavage to groups of four to six adult male Sprague-Dawley rats (weight approx 250 g) as solutions in PEG400, at doses of 10 mg per kg body weight (I.V.) or 25 mg per kg body weight (oral). Animals were fasted overnight before the study and for 4 hours post-dosing. Blood samples (1.0 mL) were obtained via a jugular vein cannula at intervals over 24 hours after oral dosing. Blood was quenched immediately using acetonitrile with 1% formic acid and then was frozen at −80° C. until analyzed.
Concentrations of propofol in plasma were determined using an API 4000 LC/MS/MS instrument equipped with an Agilent 1100 binary pump and an Agilent autosampler. The column was a Phenomenex Hydro-RP 4.6*50 mm column operating at room temperature. The mobile phases were 2 mM aqueous ammonium acetate (A) and 95% acetonitrile with 5 mM ammonium acetate (B). The gradient condition was: 5% B for 1 min, increasing to 90% B in 2.5 min and maintained for 2 min. 20 μL of sample was injected. A Turbo-IonSpray source was used, and propofol was detected in negative ion mode in Q1 at m/z=177. The peaks were integrated using Analyst 1.2 quantitation software.

[6] = rats; oral dosing; cited from earlier work

| Compound | % of Propofol Released from Propofol Prodrugs after 60 min. [1] | % of Propofol Released from Propofol Prodrugs after 60 min. [2] | % of Propofol Released from Propofol Prodrugs after 60 min. [3] | % of Propofol Released from Propofol Prodrugs after 60 min. [4] | % of Propofol Released from Propofol Prodrugs after 60 min. [5] | % of Propofol Released from Propofol Prodrugs after 60 min. (pancreatin) | bioavailability (in vivo) | administered drug undergoing first pass metabolism [6] |
| --- | --- | --- | --- | --- | --- | --- | --- | --- |
| CC(C)c1cccc(C(C)C)c1OC(=O)CC[C@H](N)C(=O)N[C@@H](C)C(=O)O [Compound 138, H-Glu(OPropofol)-Ala-OH] | 50% | 44% | 0% | 0% | 3% | 9% | – | – |
| CC(C)c1cccc(C(C)C)c1OC(=O)CC[C@H](NC(=O)[C@@H](N)CC(N)=O)C(=O)O [Compound 124, H-Asn-Glu(OPropofol)-OH] | 65% | 2% | 0% | 0% | 0% | 4% | – | – |
| CC(C)c1cccc(C(C)C)c1OC(=O)C[C@H](NC(=O)[C@@H](N)Cc1ccc(O)cc1)C(=O)O [Compound 122, H-Tyr-Asp(OPropofol)-OH] | 2% | 0% | 9% | 6% | 0% | 10% | – | – |
| CC(C)c1cccc(C(C)C)c1O [Propofol, 2,6-diisopropylphenol] | – | – | – | – | – | – | 0.23% | approximately 90% |
| CC(C)c1cccc(C(C)C)c1OC(=O)OC[C@H](NC(=O)[C@H](C)N)C(=O)O [Compound 161, H-Ala-Ser(β-OC(O)OPropofol)-OH] | 30% | 2% | 8% | 14% | 20% | 8% | – | – |
| CC(C)c1cccc(C(C)C)c1OC(=O)C[C@H](NC(=O)[C@H](C)N)C(=O)O [Compound 107, H-Ala-Asp(OPropofol)-OH] | 3% | 1% | 6% | 5% | 4% | 7% | – | – |
| CSCC[C@H](N)C(=O)N[C@@H](CC(=O)Oc1c(C(C)C)cccc1C(C)C)C(=O)O [Compound 121, H-Met-Asp(OPropofol)-OH] | 7% | 3% | 0% | 0% | 0% | 0% | – | – |
| H-Gly-Tyr-OPropofol [Compound 192] | 15% | 15% | 60% | 60% | 41% | 0% | – | – |
| H-Asp-Asp(OCH2OPropofol)-OH [Compound 220] | – | 1% | – | 0% | 49% | 6% | – | – |
